In US12528812B2 (Genentech, Inc., priority 2020, dated 2026):
Read-outs that look alike come from different tables or passages of the source.

Assays:
[1] = molecular target: T1, recombinant human JAK1 kinase domain protein (Residues 854-1154) (Homo sapiens, UniProt P23458); experiment: JAK1 biochemical assay (LabChip mobility shift, Ki); conditions: read-out: Biochem JAK1 Ki
T1 construct: human JAK1 kinase domain protein (Residues 854-1154); purchased Proteros Biostructures GmbH (Martinsried, Germany); host or cells: insect cells

[2] = tested on: IL-13-stimulated STAT6 phosphorylation in human lung bronchial epithelial BEAS-2B cell line; experiment: P-STAT6 BEAS-2B + IL-13 cell assay; type: cell-based; conditions: BEAS2B cells, IL13 stimulation, read-out: Cellular JAK1 PSTAT6 BEAS2B + IL13
Method in brief: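 BEAS-2B cells grown 48 h at 37 °C, pre-treated 1 h with compound (10-point 1:2 dilution curve), then stimulated 15 min with human recombinant IL-13 (250 ng/mL stock). Lysate P-STAT6 (Tyr641) read by MSD sandwich ELISA with total-STAT6 capture; IC50 from four-parameter logistic fit of control-normalised data.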

[3] = molecular target: Recombinant human JAK2 kinase domain protein (Residues 812-1132) (Homo sapiens, UniProt O60674); experiment: JAK2 biochemical assay (LabChip mobility shift, Ki); conditions: Biochem JAK2 Ki
Sequence of Recombinant human JAK2 kinase domain protein (Residues 812-1132) (O60674 812-1132): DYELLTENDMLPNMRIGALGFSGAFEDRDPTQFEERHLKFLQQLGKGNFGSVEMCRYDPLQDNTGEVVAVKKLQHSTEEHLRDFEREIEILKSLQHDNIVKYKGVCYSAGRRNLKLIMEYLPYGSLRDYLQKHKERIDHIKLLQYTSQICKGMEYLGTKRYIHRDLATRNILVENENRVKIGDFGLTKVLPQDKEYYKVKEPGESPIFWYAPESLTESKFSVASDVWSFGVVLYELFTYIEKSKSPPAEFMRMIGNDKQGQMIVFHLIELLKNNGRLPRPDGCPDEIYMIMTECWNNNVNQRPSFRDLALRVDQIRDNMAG

T1 sequence (P23458 854-1154): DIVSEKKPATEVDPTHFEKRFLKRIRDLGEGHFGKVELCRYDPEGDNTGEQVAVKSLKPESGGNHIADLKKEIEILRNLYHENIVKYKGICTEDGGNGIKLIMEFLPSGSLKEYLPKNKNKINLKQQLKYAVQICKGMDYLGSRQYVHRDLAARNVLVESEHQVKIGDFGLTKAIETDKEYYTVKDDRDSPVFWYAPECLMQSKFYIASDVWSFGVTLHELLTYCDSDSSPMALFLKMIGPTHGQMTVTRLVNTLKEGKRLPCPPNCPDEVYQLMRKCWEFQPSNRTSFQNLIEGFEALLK

Compound	Ki [1] [nM]	Ki [3] [nM]	IC50 ([2]; Homo sapiens, BEAS-2B) [nM]	IC50 [2] [nM]
Cn1cc(NC(=O)c2cnn3cccnc23)c(-c2cc(Oc3cccc(C(=O)N4CCC(N5CCOCC5)CC4)c3)ccc2OC(F)F)n1 [Example 81, N-[3-[2-(difluoromethoxy)-5-[3-(4-morpholinopiperidine-1-carbonyl)phenoxy]phenyl]-1-methyl-pyrazol-4-yl]pyrazolo[1,5-a]pyrimidine-3-carboxamide]	0.47	0.48	26	
Cn1cc(NC(=O)c2cnn3cccnc23)c(-c2cc(Oc3cccc(CN[C@H]4C[C@H](O)C4)c3)ccc2OC(F)F)n1 [Example 72, N-[3-[2-(difluoromethoxy)-5-[3-[[(3-hydroxycyclobutyl)amino]methyl]phenoxy]phenyl]-1-methyl-pyrazol-4-yl]pyrazolo[1,5-a]pyrimidine-3-carboxamide]	0.91	0.74	62	
NCc1ccnn1-c1cccc(Oc2ccc(OC(F)F)c(-c3n[nH]cc3NC(=O)c3cnn4cccnc34)c2)c1 [Example 65, N-[3-[5-[3-[5-(aminomethyl)pyrazol-1-yl]phenoxy]-2-(difluoromethoxy)phenyl]-1H-pyrazol-4-yl]pyrazolo[1,5-a]pyrimidine-3-carboxamide]	0.85	0.63	120	
CN(Cc1cccc(Oc2ccc(OC(F)F)c(-c3nn(C)cc3NC(=O)c3cnn4cccnc34)c2)c1)CC(C)(C)C#N [Example 21, N-[3-[5-[3-[[(2-cyano-2-methyl-propyl)-methyl-amino]methyl]phenoxy]-2-(difluoromethoxy)phenyl]-1-methyl-pyrazol-4-yl]pyrazolo[1,5-a]pyrimidine-3-carboxamide]	1.8	1.3	110	
CCn1cc(NC(=O)c2cnn3cccnc23)c(-c2cc(Oc3cc(F)cc(C4(O)CN(C)C4)c3)ccc2OC(F)F)n1 [Example 107, N-[3-[2-(difluoromethoxy)-5-[3-fluoro-5-(3-hydroxy-1-methyl-azetidin-3-yl)phenoxy]phenyl]-1-ethyl-pyrazol-4-yl]pyrazolo[1,5-a]pyrimidine-3-carboxamide]	0.43	0.49	37	
Cc1ccc(Oc2ccc(OC(F)F)c(-c3nn(C)cc3NC(=O)c3cnn4cccnc34)c2)cc1C(=O)N1CCN(C)CC1 [Example 50, N-[3-[2-(difluoromethoxy)-5-[4-methyl-3-(4-methylpiperazine-1-carbonyl)phenoxy]phenyl]-1-methyl-pyrazol-4-yl]pyrazolo[1,5-a]pyrimidine-3-carboxamide]	0.64	0.46	35	
Cn1cc(NC(=O)c2cnn3cccnc23)c(-c2cc(Oc3cccc(CN)n3)ccc2OC(F)F)n1 [Example 39, N-[3-[5-[[6-(aminomethyl)-2-pyridyl]oxy]-2-(difluoromethoxy)phenyl]-1-methyl-pyrazol-4-yl]pyrazolo[1,5-a]pyrimidine-3-carboxamide]	1.5	1.3	35	
Cn1cc(NC(=O)c2cnn3cccnc23)c(-c2cc(Oc3cccc(CNCCN4CCOCC4)c3)ccc2OC(F)F)n1 [Example 47, N-[3-[2-(difluoromethoxy)-5-[3-[(2-morpholinoethylamino)methyl]phenoxy]phenyl]-1-methyl-pyrazol-4-yl]pyrazolo[1,5-a]pyrimidine-3-carboxamide]	2	1.6	24	
CN(C)C(=O)c1ccc(Oc2ccc(OC(F)F)c(-c3nn(C)cc3NC(=O)c3cnn4cccnc34)c2)cc1 [Example 88, N-[3-[2-(difluoromethoxy)-5-[4-(dimethylcarbamoyl)phenoxy]phenyl]-1-methyl-pyrazol-4-yl]pyrazolo[1,5-a]pyrimidine-3-carboxamide]	0.31	0.24	15	
CNCCn1cc(NC(=O)c2cnn3cccnc23)c(-c2cc(Oc3ccccc3)ccc2OC(F)F)n1 [Example 26, N-[3-[2-(difluoromethoxy)-5-phenoxy-phenyl]-1-[2 (methylamino)ethyl]pyrazol-4-yl]pyrazolo[1,5-a]pyrimidine-3-carboxamide]	0.25	0.41	12	
Cn1cc(NC(=O)c2cnn3cccnc23)c(-c2cc(Oc3cccc(CN4CCO[C@H](CO)C4)c3)ccc2OC(F)F)n1 (stereo in doubt) [Example 94, N-[3-[2-(difluoromethoxy)-5-[3-[[rac-(2R)-2-(hydroxymethyl)morpholin-4-yl]methyl]phenoxy]phenyl]-1-methyl-pyrazol-4-yl]pyrazolo[1,5-a]pyrimidine-3-carboxamide]	1.7	1.1	40	
O=C(Nc1cn(C2COC2)nc1-c1cc(Oc2ccccc2)ccc1OC(F)F)c1cnn2cccnc12 [Example 56, N-[3-[2-(difluoromethoxy)-5-phenoxy-phenyl]-1-(oxetan-3-yl)pyrazol-4-yl]pyrazolo[1,5-a]pyrimidine-3-carboxamide]	0.35	0.25	15	
Cn1cc(NC(=O)c2cnn3cccnc23)c(-c2cc(Oc3cccc([C@H]4CNCCO4)c3)ccc2OC(F)F)n1 (racemic) [Example 42, N-[3-[2-(difluoromethoxy)-5-[3-[rac-(2S)-morpholin-2-yl]phenoxy]phenyl]-1-methyl-pyrazol-4-yl]pyrazolo[1,5-a]pyrimidine-3-carboxamide]	0.37	0.39	11	

More lines, main results first:

Ki [1] [nM]	Ki [3] [nM]	Compound	IC50 ([2]; Homo sapiens, BEAS-2B) [nM]	IC50 [2] [nM]
2.2	1.4	Cn1cc(NC(=O)c2cnn3cccnc23)c(-c2cc(Oc3cccnn3)ccc2OC(F)F)n1 [Example 204, N-[3-[2-(difluoromethoxy)-5-pyridazin-3-yloxy-phenyl]-1-methyl-pyrazol-4-yl]pyrazolo[1,5-a]pyrimidine-3-carboxamide]	56	
1.6	0.92	Cn1cc(Oc2ccc(OC(F)F)c(-c3nn(CC(N)=O)cc3NC(=O)c3cnn4cccnc34)c2)cn1 [Example 174, N-[1-(2-amino-2-oxo-ethyl)-3-[2-(difluoromethoxy)-5-(1-methylpyrazol-4-yl)oxy-phenyl]pyrazol-4-yl]pyrazolo[1,5-a]pyrimidine-3-carboxamide]	240	
4.1	1.9	Cn1cc(NC(=O)c2cnn3cccnc23)c(-c2cc(Oc3ccc(CN4CCC(CO)C4)cc3)ccc2OC(F)F)n1 (racemic) [Example 170, N-[3-[2-(difluoromethoxy)-5-[4-[[rac-(3S)-3-(hydroxymethyl)pyrrolidin-1-yl]methyl]phenoxy]phenyl]-1-methyl-pyrazol-4-yl]pyrazolo[1,5-a]pyrimidine-3-carboxamide]	76	
2.1	1.4	CN1CCCC(O)(Cn2cc(Oc3ccc(OC(F)F)c(-c4nn(C)cc4NC(=O)c4cnn5cccnc45)c3)cn2)C1 (stereo not drawn) [Example 194, N-[3-[2-(difluoromethoxy)-5-[1-[(3-hydroxy-l-methyl-3-piperidyl)methyl]pyrazol-4-yl]oxy-phenyl]-1-methyl-pyrazol-4-yl]pyrazolo[1,5-a]pyrimidine-3-carboxamide]		64
1.2	0.68	Cn1cc(NC(=O)c2cnn3cccnc23)c(-c2cc(Oc3ccc(CN4CCC4CO)cc3)ccc2OC(F)F)n1 (racemic) [Example 169, N-[3-[2-(difluoromethoxy)-5-[4-[[rac-(2R)-2-(hydroxymethyl)azetidin-1-yl]methyl]phenoxy]phenyl]-1-methyl-pyrazol-4-yl]pyrazolo[1,5-a]pyrimidine-3-carboxamide]		29
2.6	0.76	Cn1cc(NC(=O)c2cnn3cccnc23)c(-c2cc(Oc3ccc(CN4CCC[C@H](CO)C4)cc3)ccc2OC(F)F)n1 (racemic) [Example 162, 3-[2-(difluoromethoxy)-5-[4-[[rac-(3S)-3-(hydroxymethyl)-1-piperidyl]methyl]phenoxy]phenyl]-1-methyl-pyrazol-4-yl]pyrazolo[1,5-a]pyrimidine-3-carboxamide]	32	
0.74	0.79	CN1CC(N(C)C(=O)c2cccc(Oc3ccc(OC(F)F)c(-c4nn(C)cc4NC(=O)c4cnn5cccnc45)c3)c2)C1 [Example 205, N-[3-[2-(difluoromethoxy)-5-[3-[methyl-(1-methylazetidin-3-yl)carbamoyl]phenoxy]phenyl]-1-methyl-pyrazol-4-yl]pyrazolo[1,5-a]pyrimidine-3-carboxamide]	40	
0.61	0.74	Cn1cc(NC(=O)c2cnn3cccnc23)c(-c2cc(Oc3cnn(CC4CNC4)c3)ccc2OC(F)F)n1 [Example 123, N-[3-[5-[1-(azetidin-3-ylmethyl)pyrazol-4-yl]oxy-2-(difluoromethoxy)phenyl]-1-methyl-pyrazol-4-yl]pyrazolo[1,5-a]pyrimidine-3-carboxamide]	370	
0.57	0.34	Cn1cc(NC(=O)c2cnn3cccnc23)c(-c2cc(Oc3cnn(C4CNCC4O)c3)ccc2OC(F)F)n1 (stereo not drawn) [Example 177, N-[3-[2-(difluoromethoxy)-5-[1-(4-hydroxypyrrolidin-3-yl)pyrazol-4-yl]oxy-phenyl]-1-methyl-pyrazol-4-yl]pyrazolo[1,5-a]pyrimidine-3-carboxamide]		330
